Where “and” joins values, the source holds several entries; their conditions need not be identical. Identical values can stand only once.
Experiments:
[1] = tested on: Hbb^th3/+ mouse model of β-thalassemia intermedia; assay: Combination study: complete blood counts (ProCyte Dx); format: in vivo
Description: Complete blood counts were performed on fresh EDTA-blood on an automated blood cell analyzer (ProCyte Dx®, IDEXX Laboratories) in-house.

[2] = Combination study: plasma concentrations of Fpn127 and DFX (LC-MS/MS); format: in vivo, mouse
Description: On day 23 (study end) 1 hour after dosing blood was collected by retro-orbital bleeding from pre-terminally anesthetized mice into BD Microtainer Tubes (Cat. 365967 and 365975) for determination of serum iron, transferrin, erythropoietin and compound exposure. Anesthetized animals were subsequently euthanized by cervical dislocation.
[formula] Serum EPO was measured using a mouse-specific DuoSet ELISA according to the manufacturer's instructions (R&D Systems, Cat. DY959). Plasma concentrations of Fpn127 and DFX were measured at GVK Biosciences, Hyderabad, IN. Flow Cytometric Analysis of Intracellular ROS, Mitochondria, and PS Exposure
Plasma was collected 1 hour after dosing of DFX on day 23 for determination of compound concentration by LC-MS/MS. Plasma exposure of DFX was similar in animals dosed with DFX alone or in combination with Fpn127 (FIG. 11, Table 12). […] As expected, plasma levels of Fpn127 were low as plasma was sampled approximately 20 h after the last dose of Fpn127.

[3] = tested on: Hbb^th3/+ mouse model of β-thalassemia intermedia; assay: Combination study: organ weights and tissue iron (ICP-OES) in liver, spleen, kidney; details: for relative spleen weight: percent of body weight; for relative spleen weight / kidney Fe conc. / liver Fe conc. / spleen Fe conc.: th3/+ mice, DFX 30 mg/kg QD, Fpn127 120 mg/kg QD p.o., end of study (day 23), mean
Description: The aim of this study was to test whether the concurrent use of the iron chelator DFX administered once daily (QD) alone at 30 mg/kg or in combination with Fpn127 administered QD at 120 mg/kg for 3 weeks is causing any therapeutic interactions in a mouse model of β-thalassemia intermedia (Hbb^th3/+; B6; 129P—b1tm1Unc-b2tm1Unc/J, Jackson Laboratories, Stock Number: 002683).
Animals were euthanized 1 h after the last dose of DFX on study day 23 (dosing day 17).
On the final study day (day 23), spleen, liver, and kidneys were collected and snap frozen in liquid nitrogen for further analysis, as outlined below. Wet weight of spleen, liver, and kidneys were recorded.
Content of total Fe was determined in pieces of spleens, livers, and kidneys by ICP-OES in the Analytical Development group of Vifor (International) Ltd., St. Gallen.
Individual wet weights of organs were recorded. Individual values of total Fe were measured in livers, spleens, and kidneys. Individual values of total Fe content and concentration were calculated. Mean±SD of total Fe concentration and content in livers, spleens, and kidneys was calculated for each group.

[4] = tested on: Hbb^th3/+ mouse model of β-thalassemia intermedia; assay: Combination study: erythroid differentiation stages in spleen by flow cytometry (Ter119/CD44/CD71); format: in vivo
Text: Distinct stages of erythroid cell differentiation in spleens of female mice were identified by flow cytometry (CANTOII cytometer, BD Biosciences) using PE-conjugated rat anti-mouse CD71 (transferrin receptor-1, eBioscience, Cat. 12-0711), APC-conjugated rat anti-mouse Ter119 (erythroid lineage marker, eBioscience, Cat. 17-5921) and APC-Cy7-conjugated rat anti-mouse CD44 (adhesion molecule that progressively decreases on the surface of developing erythroid cells, BioLegend. Cat. 103028) antibodies. Data were analyzed using FlowJo® software (FlowJo. LLC, version 10.1) Serum Parameters

[5] = Combination study DFX/Fpn127: clinical observations, mortality and body weight; format: in vivo, mouse; details: for BW: th3/+ mice, mean
Description: One day after switching to lid a blood sample was taken by tail vein incision to determine the baseline Hb levels. Hb was measured using a HaemoCue® device. Hb was also measured on days 8, 15, and 22 in the morning before dosing. The animals were dosed p.o. D with 30 mg/kg DFX in 30% Kolliphor, 120 mg/kg Fpn127 in 0.5% C, or both for a total of 17 doses during the 23 days of study. 30% Kolliphor and 0.5% C were dosed as vehicles. The dose of DFX was administered at the beginning of the dark cycle (active phase) at 9:00 followed by 3 h of access to lid. Then, mice were dosed with Fpn127 (or 0.5% C) and were given access to sd for a 6 h period before switched back to lid. On the dosing was paused and mi had access to lid ad libitum.
Animals and their cages were checked daily by the experimenter during the study on working days. During the experimental phase, animals were weighted minimum once per week and scored according to their clinical symptoms: BW, general behavior and activity, appearance of hair coat, eyes, and nose. Clinical observations were recorded when present on separate score sheets.
BW was recorded once before the start of the experimental phase on day −1. During the experimental phase, individual BW were recorded 1 to 2 times per week to calculate the dosing volume and to monitor weight loss.

[6] = tested on: Hbb^th3/+ mouse model of β-thalassemia intermedia; assay: Combination study: flow cytometric analysis of intracellular ROS, mitochondria and PS exposure in mature RBC; format: in vivo
Description: In peripheral blood taken on day 22 by tail vein incision, ROS were detected with the indicator chloromethyl-2′,7′-dichlorodihydrofluorescein diacetate (CM-H2DCFDA, Invitrogen), the presence of mitochondria was detected with MitoTracker Deep Red FM (Invitrogen), and PS exposure was detected using the Annexin V Apoptosis Detection Kit (Invitrogen) in mature RBC labelled with Ter119 and CD71 antibodies.
For all analysis, cells were analyzed on a CANTOII cytometer (BD Biosciences) and data were analyzed using FlowJo® software (FlowJo, LLC, version 10.2).

[7] = th3/+ mice, DFX 30 mg/kg QD, Fpn127 120 mg/kg QD p.o., whole blood day 23, all animals, mean
[8] = percent of parent Ter119+ spleen cells, female th3/+ mice, DFX 30 mg/kg QD, Fpn127 120 mg/kg QD p.o., end of study, mean
[9] = th3/+ mice, all animals, mature RBCs in whole blood at end of study (pre-terminally d22)

O=C(NCc1ncccc1F)c1coc(CCNCCc2nc3ccccc3[nH]2)n1 [Fpn127]
leukocyte, neutrophil and lymphocyte counts ([1]; Hbb^th3/+ mice, day 23 (FIG. 8), for DFX alone: total leukocyte and lymphocyte counts): reduced to levels similar to WT | RBC indices (RBC counts, hematocrit, RDW, reticulocyte counts) ([1]; Hbbth3/+ mice, day 23 (FIG. 7)): significantly improved | HCT [1, 7]: 31.2% | Leukocytes [1, 7]: 5.7 10E3/μL | Lymphocytes [1, 7]: 5.0 10E3/μL | MCH [1, 7]: 9.9 pg | MCHC [1, 7]: 27.4 g/dL | MCV [1, 7]: 36.4 fL | Neutrophils [1, 7]: 0.3 10E3/μL | RBC [1, 7]: 9.9 10E6/μL | RDW [1, 7]: 39.1% | RET [1, 7]: 1332 10E3/μL | Ret-He [1, 7]: 11.8 pg | plasma levels of Fpn127 ([2]; approximately 20 h after the last dose of Fpn127): low | plasma exposure of Fpn127, in presence vs absence of DFX ([2]; day 23 (FIG. 11)): comparable | Plasma exposure of Fpn127 at the end of the study (mean) ([2]; th3/+ mice, all animals, plasma collected on day 23, approximately 20 h after the last dose of Fpn127, LC-MS/MS): 68 ng/mL | effect on total liver iron concentration vs vehicle-treated th3/+ mice ([3]; end of study (FIG. 3)): no effect on liver iron concentration | effect on total spleen iron concentration vs vehicle-treated th3/+ mice ([3]; end of study (FIG. 4)): significantly increased | effect on total kidney iron concentration vs vehicle-treated Hbbth3/+ mice ([3]; end of study (FIG. 5)): significantly reduced | effect on relative spleen weight in th3/+ animals ([3]; end of study d23 (FIG. 4)): significantly reduced | relative spleen weight ([3]; all animals): 0.99±0.18% and 0.99% | relative spleen weight ([3]; females): 1.12% | relative spleen weight ([3]; males): 0.86% | kidney Fe conc. ([3]; all animals): 126.7 ± 23.6 µg/g and 126.7 µg/g | liver Fe conc. ([3]; all animals): 332.2 ± 75.2 µg/g and 332.2 µg/g | spleen Fe conc. ([3]; all animals): 2738.0 ± 300.8 µg/g and 2738.0 µg/g | kidney Fe conc. ([3]; females): 138.9 µg/g | liver Fe conc. ([3]; females): 371.8 µg/g | spleen Fe conc. ([3]; females): 2713.0 µg/g | kidney Fe conc. ([3]; males): 114.5 µg/g | liver Fe conc. ([3]; males): 292.5 µg/g | spleen Fe conc. ([3]; males): 2760.0 µg/g | RBC percentage in spleen ([4]; Hbbth3/+ mice (FIG. 9)): increased | percentage of immature erythroid cells in spleen ([4]; Hbbth3/+ mice (FIG. 9)): markedly reduced | basophilic erythroblasts, frequency of parent [4, 8]: 4.94% | mature erythrocytes, frequency of parent [4, 8]: 53.52% | orthochromatic erythroblasts, frequency of parent [4, 8]: 14.65% | polychromatic erythroblasts, frequency of parent [4, 8]: 9.44% | pro-erythroblasts, frequency of parent [4, 8]: 1.74% | tolerability / clinical symptoms ([5]; Hbb^th3/+ mice, DFX 30 mg/kg QD, Fpn127 120 mg/kg QD p.o., 17 doses in 23 days): generally well tolerated | effect on BW vs vehicle-treated Hbb^th3/+ mice or WT mice ([5]; males and females, once daily for the duration of the study (d22)): no effect on BW | BW ([5]; DFX 30 mg/kg QD, Fpn127 120 mg/kg QD p.o., day 1, all animals): 22.2 g | BW ([5]; DFX 30 mg/kg QD, Fpn127 120 mg/kg QD p.o., day 1, females): 19.4 ± 1.0 g and 19.4 g | BW ([5]; DFX 30 mg/kg QD, Fpn127 120 mg/kg QD p.o., day 1, males): 25.1 ± 1.0 g and 25.1 g | BW ([5]; DFX 30 mg/kg QD, Fpn127 120 mg/kg QD p.o., day 3, all animals): 23.6 g | BW ([5]; DFX 30 mg/kg QD, Fpn127 120 mg/kg QD p.o., day 3, females): 20.3 g | BW ([5]; DFX 30 mg/kg QD, Fpn127 120 mg/kg QD p.o., day 3, males): 26.9 g | BW ([5]; DFX 30 mg/kg QD, Fpn127 120 mg/kg QD p.o., day 7, all animals): 23.1 g | BW ([5]; DFX 30 mg/kg QD, Fpn127 120 mg/kg QD p.o., day 7, females): 19.8 g | BW ([5]; DFX 30 mg/kg QD, Fpn127 120 mg/kg QD p.o., day 7, males): 26.5 g | BW ([5]; DFX 30 mg/kg QD, Fpn127 120 mg/kg QD p.o., day 10, all animals): 23.4 g | BW ([5]; DFX 30 mg/kg QD, Fpn127 120 mg/kg QD p.o., day 10, females): 20.3 g | BW ([5]; DFX 30 mg/kg QD, Fpn127 120 mg/kg QD p.o., day 10, males): 26.5 g | BW ([5]; DFX 30 mg/kg QD, Fpn127 120 mg/kg QD p.o., day 14, all animals): 23.3 g | BW ([5]; DFX 30 mg/kg QD, Fpn127 120 mg/kg QD p.o., day 14, females): 20.2 g | BW ([5]; DFX 30 mg/kg QD, Fpn127 120 mg/kg QD p.o., day 14, males): 26.3 g | BW ([5]; DFX 30 mg/kg QD, Fpn127 120 mg/kg QD p.o., day 17, all animals): 23.2 g | BW ([5]; DFX 30 mg/kg QD, Fpn127 120 mg/kg QD p.o., day 17, females): 19.7 g | BW ([5]; DFX 30 mg/kg QD, Fpn127 120 mg/kg QD p.o., day 17, males): 26.6 g | BW ([5]; DFX 30 mg/kg QD, Fpn127 120 mg/kg QD p.o., day 22, all animals): 23.3 g | BW ([5]; DFX 30 mg/kg QD, Fpn127 120 mg/kg QD p.o., day 22, females): 19.8 g | BW ([5]; DFX 30 mg/kg QD, Fpn127 120 mg/kg QD p.o., day 22, males): 26.7 g | proportion of PS-positive RBC (annexin V staining) ([6]; Hbbth3/+ mice (FIG. 12)): significantly decreased | RBC function/quality (oxidative stress, apoptosis and maturation) ([6]; Hbbth3/+ mice, summary): improved RBC quality | proportion of ROS-producing RBC ([6]; compared to Hbbth3/+ mice treated with vehicle or DFX alone, CM-H2DCFDA (FIG. 12)): significantly decreased | RBC containing mitochondria ([6]; compared to vehicle-treated and DFX-treated Hbbth3/+ mice (FIG. 12)): less RBC containing mitochondria | % Annex in V-positive RBCs (mean) [6, 9]: 0.29% | % Mito Tracker-positive RBCs (mean) [6, 9]: 0.19% | % ROS-positive RBCs (mean) [6, 9]: 32.82%
